Experiment [1] has as its system p-AMPK(Thr172) in MDA-MB-231 cells. As to the kind of experiment: Immunoblot of p-AMPK(Thr172) in MDA-MB-231 breast cancer cells. The experiment is classed as cell-based. The settings on record: 24 h. As for the experimental part:
The cells were then washed three times with 2 mL of ice-cold PBS and lysed with 0.15 mL of phospho-RIPA lysis buffer (Tris-Cl pH 7.5, 50 mM; NaCl, 150 mM; NP-40, 1%; sodium deoxycholate, 0.5%; SDS, 0.05%; EDTA, 5 mM; sodium fluoride, 50 mM; sodium pyrophosphate, 15 mM; ß-glycerophosphate, 10 mM; sodium orthovanadate, 1 mM) with protease inhibitor cocktail (Millipore-Sigma, P-8340). Equal amounts of protein per sample/lane were denatured and resolved by SDS-PAGE. Proteins were transferred to Odyssey Nitrocellulose Membranes (LI-COR Biosciences, cat no: 926-31092), and quantitative immunoblotting was performed using the Odyssey infrared immunoblotting detection system (LI-COR Biosciences, Lincoln, NE, USA). Images were captured using the LI-COR Odyssey Classic scanner and processed using LI-COR Image Studio software, version 4.0. Quantification of the bands was done using Image Studio software tools whereby each individual immunoblot band was highlighted to obtain the signal intensity. The signal intensity of the pAMPK band was then divided by that of total AMPK and the data were normalized to the vehicle-only controls for each experiment. Primary antibodies used were anti-phospho AMPKα (Thr172) (Cell Signaling, cat no: 2535, dilution 1:1000); anti-AMPKα (Cell Signaling, cat.no: 2532, dil 1:500), and anti β-actin (Cat no: 3700, Cell signaling, dil 1:10,000). […]
In general terms: In western blotting, separated proteins are transferred to a membrane and probed.

The target of experiment [2] is CAMKK2 (Homo sapiens, UniProt Q96RR4). Put plainly: CAMKK2 enzyme assay (radiolabeled phosphate transfer from [γ-32P]-ATP to CaMKKtide). The experiment is classed as biochemical. On the set-up: purified recombinant CAMKK2 (100 pM) was incubated in assay buffer. The settings on record: 200 μM ATP, 100 pM CAMKK2. As for the experimental part:
CAMKK2 activity was determined by measuring the transfer of radiolabeled phosphate from [γ-^32P]-ATP to a synthetic peptide substrate (CaMKKtide) as previously described. Briefly, purified recombinant CAMKK2 (100 pM) was incubated in assay buffer (50 mM HEPES [pH 7.4], 1 mM DTT, 0.02% [v/v] Brij-35) containing 200 μM CaMKKtide (Genscript), 100 μM CaCl2, 1 μM CaM (Sigma-Aldrich, Castle Hill, NSW, Australia), 200 μM [γ-^32P]-ATP (Perkin Elmer, Boston, MA, USA), 5 mM MgCl2 (Sigma-Aldrich, Castle Hill, NSW, Australia), and various concentrations of inhibitors (0–1 μM) in a standard 30 μL assay for 10 min at 30 °C. Reactions were terminated by spotting 15 μL onto P81 phosphocellulose paper (GE Lifesciences, Paramatta, NSW, Australia) and washing extensively in 1% phosphoric acid (Sigma-Aldrich, Castle Hill, NSW, Australia). Radioactivity was quantified by liquid scintillation counting.
A series of furo [2,3-b]pyridines were generated with modifications off the core at the 3- and 5-positions. They were profiled in the CAMKK2 enzyme assay we have described and utilized previously. Briefly, the enzyme assay measures the ability of the compound to inhibit the transfer of a radiolabeled phosphate from ATP to a CAMKK2-specific peptide. […] The S10 (1 µM), a calculated score that is reflective of broad kinome selectivity, is 0.002 for the probe molecule.

Experiment [3] relates to panel of more than 400 wild-type human kinases. Put plainly: DiscoverX KINOMEscan broad kinome profiling (panel of more than 400 wild-type human kinases), selectivity score S10. The experiment is classed as binding. The settings on record: KINOMEscan at 1 μM; number of wild type kinases with % control ≤10 / number tested. As to the method:
Compounds were screened at Eurofins DiscoverX (Freemont, CA) at a single concentration of 1 μM using binding assays as described previously. Briefly, extracts containing DNA-tagged kinases are incubated with immobilized kinase inhibitors and the test compound (at 1 μM). Test compounds that displace the immobilized broad-spectrum inhibitors are detected by quantitative PCR. The results are expressed as the percentage of kinase bound to the bead compared to DMSO control (%control). […] The formula to calculate S10 depicted in Equation (1). (1) S10(1 μM)=number of wild type kinase with % control ≤10/number of wild type kinase tested
A series of furo [2,3-b]pyridines were generated with modifications off the core at the 3- and 5-positions. They were profiled in the CAMKK2 enzyme assay we have described and utilized previously. Briefly, the enzyme assay measures the ability of the compound to inhibit the transfer of a radiolabeled phosphate from ATP to a CAMKK2-specific peptide. […] 5 was then profiled in the DiscoverX KINOMEscan™ assay panel to provide a view of the overall kinome-wide selectivity (Supplemental S2). This assay platform evaluates compound affinity for a panel of more than 400 wild-type human kinases. The S10 (1 µM), a calculated score that is reflective of broad kinome selectivity, is 0.002 for the probe molecule.

In experiment [4] the test system is p-AMPK(Thr172) in C4-2 cells. Put plainly: Western blot of p-AMPK(Thr172) in C4-2 prostate cancer cells. The experiment is classed as cell-based. The settings on record: 24 h treatment; for IC50: C4-2, 24 h, three individual experiments, read-out: IC50 for decrease of p-AMPK(Thr172) normalized to total AMPK. As for the experimental part: C4-2 cells were plated in 6-well plates in IMEM medium containing 0.5% FBS. After 72 h, the cells were then treated with the compounds for 24 h before the media was aspirated and cells were washed twice in ice-cold PBS. Cells were lysed using RIPA buffer containing phosphatase and protease inhibitor cocktail while rotating for 30 min at 4 °C. In each lane, 30 μg/well of protein lysate was loaded into a 10% SDS-PAGE gel and run for 1 h and 30 min. Gels were then transferred overnight in a TRIS-glycine/methanol transfer buffer onto a PVDF membrane at 4 °C. Membranes were blocked, incubated with primary overnight at 4 °C, washed, incubated with secondary at room temperature for 1 h, washed, and then developed on an Azure Biosystems C-600 imager. Densitometry was performed using ImageJ. Total-AMPK was normalized to GAPDH and then p-AMPK was normalized to normalized total-AMPK. Normalized p-AMPK was used to calculate IC50 in GraphPad Prism 9.5.0. Primary antibodies used were from Cell Signaling (Danvers, MA, USA; Phospho-AMPKα (Thr172) (40H9) Rabbit mAb: Cat#: 2535; AMPKα (D5A2) Rabbit mAb Cat#: 5831), BD Bioscience (Franklin Lakes, NJ, USA; CAMKK2 mouse mAb Cat# 610544), and Sigma (St. Louis, MO, USA; GAPDH rabbit pAb: Cat# G9545). Secondary antibody (Goat Anti-Rabbit IgG (H + L)-HRP Conjugate; Cat#:1706515) was from Bio-Rad Laboratories (Hercules, CA, USA).
In this experiment, IC50 was calculated via quantifying changes in p-AMPK(Thr172) normalized to total AMPK levels.

For experiment [5], the target named is T1, IKK-beta (Homo sapiens, UniProt O14920).
T1 construct: purchased Eurofins DiscoverX KINOMEscan
As to the kind of experiment: KINOMEscan 1 μM, IKK-beta. The experiment is classed as binding. The settings on record: 1000 nM; Entrez IKBKB; read-out: Percent Control. The text has this:
(§1) Supplement cells-12-00287-s001.zip/File S2. KinomeScan data for the CAMKK2 probe and negative control.xlsx, sheet "SGC-CAMKK2-1" | column: Percent Control

The target in experiment [6] is T2, PRP4 (Homo sapiens, UniProt Q13523).
T2 construct: purchased Eurofins DiscoverX KINOMEscan
As to the kind of experiment: DiscoverX KINOMEscan binding assay at 1 μM, PRP4. The settings on record: PRP4 (PRPF4B); Compound Concentration 1000 nM; read-out: Percent Control.
From the text: as §1

Molecules are shown by their SMILES. Entries after “also recorded” stand apart in the source; their conditions may differ. A value given as a limit tells only on which side of the number the result lay.

T2 sequence (Q13523 whole entry): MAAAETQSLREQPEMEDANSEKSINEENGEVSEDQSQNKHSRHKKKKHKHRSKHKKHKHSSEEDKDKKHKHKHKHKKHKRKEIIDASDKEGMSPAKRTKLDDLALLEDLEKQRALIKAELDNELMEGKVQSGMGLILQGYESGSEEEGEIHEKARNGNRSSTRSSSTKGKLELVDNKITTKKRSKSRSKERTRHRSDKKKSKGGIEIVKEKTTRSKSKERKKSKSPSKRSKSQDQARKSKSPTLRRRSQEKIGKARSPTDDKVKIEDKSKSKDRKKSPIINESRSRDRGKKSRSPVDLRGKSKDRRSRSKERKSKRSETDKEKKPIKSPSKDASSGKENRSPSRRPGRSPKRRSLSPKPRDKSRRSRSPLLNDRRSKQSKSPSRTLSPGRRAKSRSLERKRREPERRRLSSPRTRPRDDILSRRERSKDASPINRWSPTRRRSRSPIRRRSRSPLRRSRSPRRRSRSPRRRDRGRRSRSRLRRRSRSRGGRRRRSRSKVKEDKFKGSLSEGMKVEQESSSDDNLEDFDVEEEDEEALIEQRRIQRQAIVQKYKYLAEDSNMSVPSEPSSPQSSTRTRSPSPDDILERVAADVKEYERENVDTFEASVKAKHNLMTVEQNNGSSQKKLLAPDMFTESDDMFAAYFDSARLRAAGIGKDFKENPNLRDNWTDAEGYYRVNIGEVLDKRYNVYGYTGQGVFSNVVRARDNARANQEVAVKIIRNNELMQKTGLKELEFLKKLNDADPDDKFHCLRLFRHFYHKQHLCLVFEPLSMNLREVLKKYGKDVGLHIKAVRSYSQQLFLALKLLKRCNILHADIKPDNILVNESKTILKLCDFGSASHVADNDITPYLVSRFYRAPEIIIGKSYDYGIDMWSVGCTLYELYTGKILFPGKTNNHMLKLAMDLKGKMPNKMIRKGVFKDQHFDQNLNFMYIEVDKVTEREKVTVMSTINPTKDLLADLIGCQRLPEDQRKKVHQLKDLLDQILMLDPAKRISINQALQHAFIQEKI
T1 sequence (O14920 whole entry): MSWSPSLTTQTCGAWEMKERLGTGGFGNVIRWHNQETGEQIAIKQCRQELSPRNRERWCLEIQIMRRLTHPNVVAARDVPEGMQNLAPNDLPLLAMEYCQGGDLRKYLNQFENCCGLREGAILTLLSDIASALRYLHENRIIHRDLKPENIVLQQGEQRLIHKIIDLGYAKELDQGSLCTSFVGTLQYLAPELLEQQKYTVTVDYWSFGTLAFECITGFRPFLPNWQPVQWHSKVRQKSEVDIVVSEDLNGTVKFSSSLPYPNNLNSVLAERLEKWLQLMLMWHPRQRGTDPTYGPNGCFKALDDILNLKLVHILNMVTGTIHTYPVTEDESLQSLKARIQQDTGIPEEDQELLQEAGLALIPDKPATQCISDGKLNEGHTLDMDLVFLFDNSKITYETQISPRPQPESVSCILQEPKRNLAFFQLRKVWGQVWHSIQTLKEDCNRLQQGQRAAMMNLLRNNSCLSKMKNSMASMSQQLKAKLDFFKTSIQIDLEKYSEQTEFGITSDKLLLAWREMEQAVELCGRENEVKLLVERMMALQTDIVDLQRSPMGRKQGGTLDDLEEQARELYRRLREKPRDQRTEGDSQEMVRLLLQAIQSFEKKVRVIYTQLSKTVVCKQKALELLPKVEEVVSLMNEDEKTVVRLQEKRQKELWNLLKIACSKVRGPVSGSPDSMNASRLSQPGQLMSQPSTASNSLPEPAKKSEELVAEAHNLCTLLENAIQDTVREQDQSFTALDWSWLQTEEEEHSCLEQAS

The IC50 is the point on the concentration scale where inhibition reaches its midpoint. Regarding `Cc1cccc(-c2cnc3occ(-c4ccc(C(=O)O)c(C5CCCC5)c4)c3c2)c1` [Compound 5], in experiment [1] (SGC-CAMKK2-1), the “blocking of AMPK phosphorylation (in words)” value is recorded as “more effective than STO-609; also recorded: higher efficacy than STO-609”. Further, the half-maximal inhibitory concentration (IC50) in experiment [2] was found to be 30 nM; in experiment [4], 1600 nM. Further, the “S10 (1 μM)” value in experiment [3] stood at 0.002.

With `O=C(O)c1ccc(-c2coc3ncc(-c4ccccc4)cc23)cc1Cl` [Compound 7], in experiment [1] (negative control at 10 μM), the “blocking of AMPK phosphorylation (in words)” value is listed as “no effect”. Further, the IC50 in experiment [2] (n = 1) came to 27000 nM. The “S10 (1 μM)” value in experiment [3] is 0.005. In experiment [4], the “activity on p-AMPK(Thr172) levels (in words)” value was “did not have any measurable activity” and the concentration for half-maximal inhibition (IC50) was no less than 10000 nM.

In the case of `Cc1cccc(-c2cnc3occ(-c4ccc(C(=O)O)c(C5CCCC5)c4)c3c2)c1` [SGC-CAMKK2-1 (YL-36)], the remaining binding at 1 µM in experiment [5] and in experiment [6] was 100% each time.

Values taken from article PMC9856672, “SGC-CAMKK2-1: A Chemical Probe for CAMKK2” (Cells, 2023).
